Results taken from the kinase profiling compilation of Christmann-Franck et al. (2016).

Key:
PIM1 (human) [1] = target: PIM1 (human) (UniProt P11309); test: SelectScreen, TR FRET
PIM2 (human) [2] = target: PIM2 (human) (UniProt Q9P1W9); test: SelectScreen, TR FRET
DAPK3 (human) = DAPK3 (human) (UniProt O43293); test: KINOMEscan competition binding; conditions: compound 10.0 µM
STK17A (human) = STK17A (human) (UniProt Q9UEE5); test: KINOMEscan competition binding; conditions: compound 10.0 µM
DAPK1 (human) = DAPK1 (human) (UniProt P53355); test: KINOMEscan competition binding; conditions: compound 10.0 µM
HIPK1 (human) = HIPK1 (human) (UniProt Q86Z02); test: KINOMEscan competition binding; conditions: compound 10.0 µM
CLK4 (human) = CLK4 (human) (UniProt Q9HAZ1); test: KINOMEscan competition binding; conditions: compound 10.0 µM
DAPK2 (human) = DAPK2 (human) (UniProt Q9UIK4); test: KINOMEscan competition binding; conditions: compound 10.0 µM
CDK7 (human) = CDK7 (human) (UniProt P50613); test: KINOMEscan competition binding; conditions: compound 10.0 µM
TGFBR2 (human) = TGFBR2 (human) (UniProt P37173); test: KINOMEscan competition binding; conditions: compound 10.0 µM
CDK16 (human) = CDK16 (human) (UniProt Q00536); test: KINOMEscan competition binding; conditions: compound 10.0 µM
[3] = target: TYK2 JH2 pseudokinase (human) (UniProt P29597); test: KINOMEscan competition binding; conditions: compound 10.0 µM
TAOK1 (human) = TAOK1 (human) (UniProt Q7L7X3); test: KINOMEscan competition binding; conditions: compound 10.0 µM
MAP2K3 (human) = MAP2K3 (human) (UniProt P46734); test: KINOMEscan competition binding; conditions: compound 10.0 µM
CLK2 (human) = CLK2 (human) (UniProt P49760); test: KINOMEscan competition binding; conditions: compound 10.0 µM
PIM1 (human) [4] = target: PIM1 (human) (UniProt P11309); test: KINOMEscan competition binding; conditions: compound 10.0 µM
TAOK3 (human) = TAOK3 (human) (UniProt Q9H2K8); test: KINOMEscan competition binding; conditions: compound 10.0 µM
IKBKB (human) = IKBKB (human) (UniProt O14920); test: KINOMEscan competition binding; conditions: compound 10.0 µM
CLK1 (human) = CLK1 (human) (UniProt P49759); test: KINOMEscan competition binding; conditions: compound 10.0 µM
GSK3B (human) = GSK3B (human) (UniProt P49841); test: KINOMEscan competition binding; conditions: compound 10.0 µM
STK17B (human) = STK17B (human) (UniProt O94768); test: KINOMEscan competition binding; conditions: compound 10.0 µM
GSK3A (human) = GSK3A (human) (UniProt P49840); test: KINOMEscan competition binding; conditions: compound 10.0 µM
DYRK1B (human) = DYRK1B (human) (UniProt Q9Y463); test: KINOMEscan competition binding; conditions: compound 10.0 µM
PIM2 (human) [5] = target: PIM2 (human) (UniProt Q9P1W9); test: KINOMEscan competition binding; conditions: compound 10.0 µM
PIM3 (human) = PIM3 (human) (UniProt Q86V86); test: KINOMEscan competition binding; conditions: compound 10.0 µM
CHUK (human) = CHUK (human) (UniProt O15111); test: KINOMEscan competition binding; conditions: compound 10.0 µM
MAPK15 (human) = MAPK15 (human) (UniProt Q8TD08); test: KINOMEscan competition binding; conditions: compound 10.0 µM
PLK4 (human) = PLK4 (human) (UniProt O00444); test: KINOMEscan competition binding; conditions: compound 10.0 µM
PLK1 (human) = PLK1 (human) (UniProt P53350); test: KINOMEscan competition binding; conditions: compound 10.0 µM
ULK2 (human) = ULK2 (human) (UniProt Q8IYT8); test: KINOMEscan competition binding; conditions: compound 10.0 µM
MAPK7 (human) = MAPK7 (human) (UniProt Q13164); test: KINOMEscan competition binding; conditions: compound 10.0 µM
DCLK2 (human) = DCLK2 (human) (UniProt Q8N568); test: KINOMEscan competition binding; conditions: compound 10.0 µM
CAMKK2 (human) = CAMKK2 (human) (UniProt Q96RR4); test: KINOMEscan competition binding; conditions: compound 10.0 µM
RPS6KA2 KD2 (human) = RPS6KA2 KD2 (human) (UniProt Q15349); test: KINOMEscan competition binding; conditions: compound 10.0 µM
PIK3CD (human) = PIK3CD (human) (UniProt O00329); test: KINOMEscan competition binding; conditions: compound 10.0 µM
PRKD1 (human) = PRKD1 (human) (UniProt Q15139); test: KINOMEscan competition binding; conditions: compound 10.0 µM
[6] = system: ABL1 (human), P00519 [F317L]; test: KINOMEscan competition binding; conditions: compound 10.0 µM
PIK3CG (human) = PIK3CG (human) (UniProt P48736); test: KINOMEscan competition binding; conditions: compound 10.0 µM
PRKD2 (human) = PRKD2 (human) (UniProt Q9BZL6); test: KINOMEscan competition binding; conditions: compound 10.0 µM
TTK (human) = TTK (human) (UniProt P33981); test: KINOMEscan competition binding; conditions: compound 10.0 µM
ALK (human) = ALK (human) (UniProt Q9UM73); test: KINOMEscan competition binding; conditions: compound 10.0 µM
CHEK2 (human) = CHEK2 (human) (UniProt O96017); test: KINOMEscan competition binding; conditions: compound 10.0 µM
FRK (human) = FRK (human) (UniProt P42685); test: KINOMEscan competition binding; conditions: compound 10.0 µM
PTK2 (human) = PTK2 (human) (UniProt Q05397); test: KINOMEscan competition binding; conditions: compound 10.0 µM
CAMK2G (human) = CAMK2G (human) (UniProt Q13555); test: KINOMEscan competition binding; conditions: compound 10.0 µM
RPS6KA6 KD2 (human) = RPS6KA6 KD2 (human) (UniProt Q9UK32); test: KINOMEscan competition binding; conditions: compound 10.0 µM
MKNK2 (human) = MKNK2 (human) (UniProt Q9HBH9); test: KINOMEscan competition binding; conditions: compound 10.0 µM
CAMK2D (human) = CAMK2D (human) (UniProt Q13557); test: KINOMEscan competition binding; conditions: compound 10.0 µM
TNK1 (human) = TNK1 (human) (UniProt Q13470); test: KINOMEscan competition binding; conditions: compound 10.0 µM
NUAK1 (human) = NUAK1 (human) (UniProt O60285); test: KINOMEscan competition binding; conditions: compound 10.0 µM
PRKD3 (human) = PRKD3 (human) (UniProt O94806); test: KINOMEscan competition binding; conditions: compound 10.0 µM
PHKG2 (human) = PHKG2 (human) (UniProt P15735); test: KINOMEscan competition binding; conditions: compound 10.0 µM
ULK1 (human) = ULK1 (human) (UniProt O75385); test: KINOMEscan competition binding; conditions: compound 10.0 µM
SGK110 (human) = SGK110 (human) (UniProt P0C264); test: KINOMEscan competition binding; conditions: compound 10.0 µM
CAMK2A (human) = CAMK2A (human) (UniProt Q9UQM7); test: KINOMEscan competition binding; conditions: compound 10.0 µM
CSF1R (human) = CSF1R (human) (UniProt P07333); test: KINOMEscan competition binding; conditions: compound 10.0 µM
ROS1 (human) = ROS1 (human) (UniProt P08922); test: KINOMEscan competition binding; conditions: compound 10.0 µM
FGFR4 (human) = FGFR4 (human) (UniProt P22455); test: KINOMEscan competition binding; conditions: compound 10.0 µM
DCLK1 (human) = DCLK1 (human) (UniProt O15075); test: KINOMEscan competition binding; conditions: compound 10.0 µM
STK33 (human) = STK33 (human) (UniProt Q9BYT3); test: KINOMEscan competition binding; conditions: compound 10.0 µM
[7] = system: ABL1 (human), P00519 [F317I]; test: KINOMEscan competition binding; conditions: compound 10.0 µM
PTK6 (human) = PTK6 (human) (UniProt Q13882); test: KINOMEscan competition binding; conditions: compound 10.0 µM
RPS6KA1 KD2 (human) = RPS6KA1 KD2 (human) (UniProt Q15418); test: KINOMEscan competition binding; conditions: compound 10.0 µM
MYLK (human) = MYLK (human) (UniProt Q15746); test: KINOMEscan competition binding; conditions: compound 10.0 µM
DCLK3 (human) = DCLK3 (human) (UniProt Q9C098); test: KINOMEscan competition binding; conditions: compound 10.0 µM
FER (human) = FER (human) (UniProt P16591); test: KINOMEscan competition binding; conditions: compound 10.0 µM
TNK2 (human) = TNK2 (human) (UniProt Q07912); test: KINOMEscan competition binding; conditions: compound 10.0 µM
NUAK2 (human) = NUAK2 (human) (UniProt Q9H093); test: KINOMEscan competition binding; conditions: compound 10.0 µM
GAK (human) = GAK (human) (UniProt O14976); test: KINOMEscan competition binding; conditions: compound 10.0 µM

Sequence of PIM2 (human) (Q9P1W9 whole entry, looked up): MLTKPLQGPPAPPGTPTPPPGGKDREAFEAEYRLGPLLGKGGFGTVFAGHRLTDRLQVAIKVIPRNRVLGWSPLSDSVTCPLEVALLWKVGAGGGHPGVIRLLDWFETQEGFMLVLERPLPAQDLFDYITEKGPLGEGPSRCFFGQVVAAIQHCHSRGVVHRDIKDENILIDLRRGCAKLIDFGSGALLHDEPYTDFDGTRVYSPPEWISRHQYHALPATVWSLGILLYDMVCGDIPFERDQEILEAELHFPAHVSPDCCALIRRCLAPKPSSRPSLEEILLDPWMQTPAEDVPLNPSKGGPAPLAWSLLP
Sequence of TAOK3 (human) (Q9H2K8 whole entry, looked up): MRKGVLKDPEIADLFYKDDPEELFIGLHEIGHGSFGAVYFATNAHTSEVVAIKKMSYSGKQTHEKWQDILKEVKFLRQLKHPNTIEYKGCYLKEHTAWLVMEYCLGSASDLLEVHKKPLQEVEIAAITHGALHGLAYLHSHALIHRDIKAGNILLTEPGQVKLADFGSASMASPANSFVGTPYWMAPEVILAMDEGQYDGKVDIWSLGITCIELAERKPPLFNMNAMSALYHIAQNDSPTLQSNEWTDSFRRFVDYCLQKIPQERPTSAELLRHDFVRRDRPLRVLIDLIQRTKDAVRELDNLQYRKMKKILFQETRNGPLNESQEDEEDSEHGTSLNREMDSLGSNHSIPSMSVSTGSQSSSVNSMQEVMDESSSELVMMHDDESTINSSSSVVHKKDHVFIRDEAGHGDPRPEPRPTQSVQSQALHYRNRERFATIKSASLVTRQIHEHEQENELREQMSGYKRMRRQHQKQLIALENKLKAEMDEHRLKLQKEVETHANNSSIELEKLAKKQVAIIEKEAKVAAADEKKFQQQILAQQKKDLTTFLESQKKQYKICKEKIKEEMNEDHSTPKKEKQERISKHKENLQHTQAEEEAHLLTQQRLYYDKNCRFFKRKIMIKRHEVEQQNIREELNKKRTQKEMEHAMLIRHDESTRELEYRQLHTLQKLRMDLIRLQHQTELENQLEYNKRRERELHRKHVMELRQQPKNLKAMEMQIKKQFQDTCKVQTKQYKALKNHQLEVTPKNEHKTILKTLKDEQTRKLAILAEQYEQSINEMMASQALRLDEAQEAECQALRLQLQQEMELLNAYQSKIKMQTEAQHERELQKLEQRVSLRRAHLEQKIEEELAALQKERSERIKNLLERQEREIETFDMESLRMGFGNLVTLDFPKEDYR
Sequence of TAOK1 (human) (Q7L7X3 whole entry, looked up): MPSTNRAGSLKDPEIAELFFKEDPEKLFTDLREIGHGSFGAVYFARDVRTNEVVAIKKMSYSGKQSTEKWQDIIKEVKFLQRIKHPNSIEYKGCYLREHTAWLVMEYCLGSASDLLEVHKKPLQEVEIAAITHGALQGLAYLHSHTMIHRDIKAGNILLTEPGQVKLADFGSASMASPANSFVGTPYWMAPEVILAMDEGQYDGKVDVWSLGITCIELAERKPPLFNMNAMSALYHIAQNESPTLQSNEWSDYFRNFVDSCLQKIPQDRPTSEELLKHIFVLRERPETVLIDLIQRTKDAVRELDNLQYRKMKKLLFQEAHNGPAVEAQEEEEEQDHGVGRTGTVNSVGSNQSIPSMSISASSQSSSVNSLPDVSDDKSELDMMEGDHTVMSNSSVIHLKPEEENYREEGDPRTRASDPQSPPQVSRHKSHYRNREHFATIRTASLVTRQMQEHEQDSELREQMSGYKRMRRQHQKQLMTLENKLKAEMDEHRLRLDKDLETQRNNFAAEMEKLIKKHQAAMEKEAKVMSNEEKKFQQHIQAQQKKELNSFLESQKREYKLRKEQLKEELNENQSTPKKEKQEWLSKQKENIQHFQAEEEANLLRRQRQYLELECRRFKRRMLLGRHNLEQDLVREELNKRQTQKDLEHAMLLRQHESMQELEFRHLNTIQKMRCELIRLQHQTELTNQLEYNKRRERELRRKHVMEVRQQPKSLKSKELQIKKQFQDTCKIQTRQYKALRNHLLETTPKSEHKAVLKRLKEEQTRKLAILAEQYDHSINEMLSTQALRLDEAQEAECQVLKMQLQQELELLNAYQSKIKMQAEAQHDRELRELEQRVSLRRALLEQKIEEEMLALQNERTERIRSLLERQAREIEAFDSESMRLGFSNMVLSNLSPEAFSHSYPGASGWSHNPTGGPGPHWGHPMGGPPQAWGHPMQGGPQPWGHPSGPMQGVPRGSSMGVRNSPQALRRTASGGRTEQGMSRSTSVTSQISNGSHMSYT
Sequence of PIM1 (human) (P11309 whole entry, looked up): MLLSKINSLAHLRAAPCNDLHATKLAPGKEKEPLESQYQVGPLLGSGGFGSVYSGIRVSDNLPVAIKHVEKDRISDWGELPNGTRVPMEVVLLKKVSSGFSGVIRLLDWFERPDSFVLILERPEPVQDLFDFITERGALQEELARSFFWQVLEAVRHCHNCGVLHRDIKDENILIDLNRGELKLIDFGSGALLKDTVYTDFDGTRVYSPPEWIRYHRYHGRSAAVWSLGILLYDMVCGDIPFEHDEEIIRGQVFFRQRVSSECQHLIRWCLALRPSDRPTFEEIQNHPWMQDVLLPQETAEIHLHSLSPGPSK
Sequence of PLK4 (human) (O00444 whole entry, looked up): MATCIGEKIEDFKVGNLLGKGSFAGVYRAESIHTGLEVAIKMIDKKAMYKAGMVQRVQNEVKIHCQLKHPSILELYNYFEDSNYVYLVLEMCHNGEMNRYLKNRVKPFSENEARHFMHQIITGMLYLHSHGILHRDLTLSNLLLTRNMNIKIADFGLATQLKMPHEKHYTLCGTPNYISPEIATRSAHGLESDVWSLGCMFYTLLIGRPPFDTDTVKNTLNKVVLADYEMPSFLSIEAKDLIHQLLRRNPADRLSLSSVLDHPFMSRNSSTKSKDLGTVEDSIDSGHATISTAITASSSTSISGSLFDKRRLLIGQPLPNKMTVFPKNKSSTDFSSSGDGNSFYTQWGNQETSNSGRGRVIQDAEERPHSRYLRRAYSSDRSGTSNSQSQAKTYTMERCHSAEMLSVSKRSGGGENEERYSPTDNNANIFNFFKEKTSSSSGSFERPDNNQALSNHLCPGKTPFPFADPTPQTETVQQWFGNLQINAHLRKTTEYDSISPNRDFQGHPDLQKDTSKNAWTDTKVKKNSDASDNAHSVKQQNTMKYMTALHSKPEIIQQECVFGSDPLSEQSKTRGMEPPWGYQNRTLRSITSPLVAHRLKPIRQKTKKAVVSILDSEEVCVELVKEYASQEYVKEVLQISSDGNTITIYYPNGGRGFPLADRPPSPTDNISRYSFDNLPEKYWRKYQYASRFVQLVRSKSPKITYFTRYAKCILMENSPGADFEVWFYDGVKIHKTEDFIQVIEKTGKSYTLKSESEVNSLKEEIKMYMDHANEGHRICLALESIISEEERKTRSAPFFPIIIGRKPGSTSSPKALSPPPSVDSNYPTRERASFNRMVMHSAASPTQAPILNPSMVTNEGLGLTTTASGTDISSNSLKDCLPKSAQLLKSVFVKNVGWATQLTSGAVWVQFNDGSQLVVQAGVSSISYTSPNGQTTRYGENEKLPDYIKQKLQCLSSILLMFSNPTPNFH
Sequence of PRKD2 (human) (Q9BZL6 whole entry, looked up): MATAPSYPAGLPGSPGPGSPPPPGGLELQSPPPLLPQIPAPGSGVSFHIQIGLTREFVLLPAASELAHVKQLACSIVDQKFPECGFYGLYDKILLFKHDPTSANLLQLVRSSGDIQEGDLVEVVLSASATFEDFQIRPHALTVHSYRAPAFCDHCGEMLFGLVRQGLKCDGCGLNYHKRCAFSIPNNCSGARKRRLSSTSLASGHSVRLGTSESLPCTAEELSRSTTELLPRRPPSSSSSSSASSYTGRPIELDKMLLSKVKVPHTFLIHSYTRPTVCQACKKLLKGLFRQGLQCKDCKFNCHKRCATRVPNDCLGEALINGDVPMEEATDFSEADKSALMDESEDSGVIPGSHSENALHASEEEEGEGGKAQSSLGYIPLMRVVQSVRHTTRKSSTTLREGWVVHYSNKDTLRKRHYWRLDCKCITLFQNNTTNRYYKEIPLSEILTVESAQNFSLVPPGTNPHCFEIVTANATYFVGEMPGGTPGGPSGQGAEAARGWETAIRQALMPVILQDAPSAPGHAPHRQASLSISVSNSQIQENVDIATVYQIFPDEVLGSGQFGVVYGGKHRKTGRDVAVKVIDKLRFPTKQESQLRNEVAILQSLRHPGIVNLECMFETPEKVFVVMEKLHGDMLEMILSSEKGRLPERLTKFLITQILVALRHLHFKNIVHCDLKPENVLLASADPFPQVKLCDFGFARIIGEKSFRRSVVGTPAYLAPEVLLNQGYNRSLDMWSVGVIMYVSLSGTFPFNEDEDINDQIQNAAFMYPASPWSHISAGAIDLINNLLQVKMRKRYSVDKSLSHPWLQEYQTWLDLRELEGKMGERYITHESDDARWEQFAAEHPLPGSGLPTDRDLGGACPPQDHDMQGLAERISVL
Sequence of MAP2K3 (human) (P46734 whole entry, looked up): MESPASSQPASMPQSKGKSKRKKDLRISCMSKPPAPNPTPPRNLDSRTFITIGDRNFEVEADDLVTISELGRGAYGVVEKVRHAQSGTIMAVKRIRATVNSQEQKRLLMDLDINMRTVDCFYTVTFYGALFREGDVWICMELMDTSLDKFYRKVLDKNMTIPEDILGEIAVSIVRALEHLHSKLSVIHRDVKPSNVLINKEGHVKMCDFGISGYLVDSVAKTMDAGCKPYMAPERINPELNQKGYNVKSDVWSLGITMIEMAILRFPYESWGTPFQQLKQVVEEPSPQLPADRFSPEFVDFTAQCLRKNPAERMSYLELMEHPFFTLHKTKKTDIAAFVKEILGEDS

## N=C1NC(=O)/C(=C/c2ccc(-c3ccc(F)cc3)o2)S1
PIM1 (human) [1]
  IC50: 1750 nM
PIM2 (human) [2]
  IC50: 590 nM
DAPK3 (human)
  kinase still bound, per cent of control: 14%
STK17A (human)
  kinase still bound, per cent of control: 0.45%
DAPK1 (human)
  kinase still bound, per cent of control: 15%
HIPK1 (human)
  kinase still bound, per cent of control: 0.2%
CLK4 (human)
  kinase still bound, per cent of control: 28%
DAPK2 (human)
  kinase still bound, per cent of control: 5.1%
CDK7 (human)
  kinase still bound, per cent of control: 15%
TGFBR2 (human)
  kinase still bound, per cent of control: 7.8%
CDK16 (human)
  kinase still bound, per cent of control: 9.4%
[3]
  kinase still bound, per cent of control: 34%
TAOK1 (human)
  kinase still bound, per cent of control: 0.3%
MAP2K3 (human)
  kinase still bound, per cent of control: 5.8%
CLK2 (human)
  kinase still bound, per cent of control: 16%
PIM1 (human) [4]
  kinase still bound, per cent of control: 3.4%
TAOK3 (human)
  kinase still bound, per cent of control: 6.6%
IKBKB (human)
  kinase still bound, per cent of control: 29%
CLK1 (human)
  kinase still bound, per cent of control: 26%
GSK3B (human)
  kinase still bound, per cent of control: 30%
STK17B (human)
  kinase still bound, per cent of control: 2.2%
GSK3A (human)
  kinase still bound, per cent of control: 4.3%
DYRK1B (human)
  kinase still bound, per cent of control: 33%
PIM2 (human) [5]
  kinase still bound, per cent of control: 1.2%
PIM3 (human)
  kinase still bound, per cent of control: 3.7%
CHUK (human)
  kinase still bound, per cent of control: 27%
MAPK15 (human)
  kinase still bound, per cent of control: 0.95%
PLK4 (human)
  kinase still bound, per cent of control: 21%

## COc1cc(N2CCN(C)CC2)ccc1Nc1ncc2c(n1)N(C)c1ccccc1C(=O)N2C
PLK1 (human)
  kinase still bound, per cent of control: 9.8%
ULK2 (human)
  kinase still bound, per cent of control: 0.5%
MAPK7 (human)
  kinase still bound, per cent of control: 0%
DCLK2 (human)
  kinase still bound, per cent of control: 0.45%
CAMKK2 (human)
  kinase still bound, per cent of control: 15%
RPS6KA2 KD2 (human)
  kinase still bound, per cent of control: 15%
PIK3CD (human)
  kinase still bound, per cent of control: 33%
PRKD1 (human)
  kinase still bound, per cent of control: 3.8%
[6]
  kinase still bound, per cent of control: 17%
PIK3CG (human)
  kinase still bound, per cent of control: 31%
PRKD2 (human)
  kinase still bound, per cent of control: 0.55%
TTK (human)
  kinase still bound, per cent of control: 26%
ALK (human)
  kinase still bound, per cent of control: 16%
CHEK2 (human)
  kinase still bound, per cent of control: 30%
FRK (human)
  kinase still bound, per cent of control: 2.6%
TAOK1 (human)
  kinase still bound, per cent of control: 4.8%
PTK2 (human)
  kinase still bound, per cent of control: 16%
CAMK2G (human)
  kinase still bound, per cent of control: 31%
RPS6KA6 KD2 (human)
  kinase still bound, per cent of control: 4.9%
MKNK2 (human)
  kinase still bound, per cent of control: 0%
CAMK2D (human)
  kinase still bound, per cent of control: 23%
TAOK3 (human)
  kinase still bound, per cent of control: 2%
TNK1 (human)
  kinase still bound, per cent of control: 0.4%
NUAK1 (human)
  kinase still bound, per cent of control: 7.6%
PRKD3 (human)
  kinase still bound, per cent of control: 5.4%
PHKG2 (human)
  kinase still bound, per cent of control: 29%
ULK1 (human)
  kinase still bound, per cent of control: 2.9%
SGK110 (human)
  kinase still bound, per cent of control: 30%
CAMK2A (human)
  kinase still bound, per cent of control: 32%
CSF1R (human)
  kinase still bound, per cent of control: 16%
ROS1 (human)
  kinase still bound, per cent of control: 7.6%
FGFR4 (human)
  kinase still bound, per cent of control: 5.6%
DCLK1 (human)
  kinase still bound, per cent of control: 0.65%
STK33 (human)
  kinase still bound, per cent of control: 8.8%
[7]
  kinase still bound, per cent of control: 5%
PTK6 (human)
  kinase still bound, per cent of control: 7.6%
RPS6KA1 KD2 (human)
  kinase still bound, per cent of control: 18%
MYLK (human)
  kinase still bound, per cent of control: 13%
DCLK3 (human)
  kinase still bound, per cent of control: 16%
FER (human)
  kinase still bound, per cent of control: 32%
TNK2 (human)
  kinase still bound, per cent of control: 3.2%
NUAK2 (human)
  kinase still bound, per cent of control: 14%
PLK4 (human)
  kinase still bound, per cent of control: 6.8%
GAK (human)
  kinase still bound, per cent of control: 9.8%
